Assay results from paper PMC5656322, “BAK1 is involved in AtRALF1-induced inhibition of root cell expansion” (PLoS Genetics, 2017).
“And” between values parts separate entries of the source, which are not always exact repeats. Equal values may be shown once. Where no end group is shown, it is not given here.

B1: Recombinant His-tagged HA-BAK1-ECD (domain or fragment, Arabidopsis thaliana, UniProt Q94F62 26-225, looked up)
chain: NAEGDALSALKNSLADPNKVLQSWDATLVTPCTWFHVTCNSDNSVTRVDLGNANLSGQLVMQLGQLPNLQYLELYSNNITGTIPEQLGNLTELVSLDLYLNNLSGPIPSTLGRLKKLRFLRLNNNSLSGEIPRSLTAVLTLQVLDLSNNPLTGDIPVNGSFSLFTPISFANTKLTPLPASPPPPISPTPPSPAGSNRITG
notes: BRI1-associated receptor kinase 1 (BAK1), Arabidopsis thaliana; extracellular domain; printed molecular weight 25,654.04 Da; HA-BAK1-ECD amplified from the pGADT7 construct, moved to pDEST17; also called BAK1-ED; not shown: HA, N-terminal, kept
B2: Recombinant His-tagged AtRALF1 (peptide, UniProt Q9SRY3 72-120, looked up)
chain: ATTKYISYQSLKRNSVPCSRRGASYYNCQNGAQANPYSRGCSKIARCRS
modifications: ends and bridges not checked; also: His-tagged
notes: Rapid alkalinization factor 1 (AtRALF1), Arabidopsis thaliana; the active peptide (49 residues by the label RALF1(9–49)), cloned in pET-28b at NdeI/HindIII; printed molecular weight 7,631 Da; The printed mass of 7,631 Da would fit the 49-residue peptide with the His tag of pET-28b still on it (surmise); also called recombinant AtRALF1; R1

How the values were obtained:
BAK1-GFP = assay: Co-immunoprecipitation with microsomal fraction of N. benthamiana leaves expressing BAK1-GFP; format: binding, Arabidopsis thaliana; details: 600 nM peptide, 1 h, 4 °C, anti-GFP antibody
Experimental: This assay was performed as previously described with some modifications. The BAK1 coding region was amplified from Arabidopsis genomic cDNA using standard PCR with the primers BAK1 Fw and BAK1 Rv (S1 Table). To generate the p35S-BAK1:GFP plasmid, the fragment was cloned into the pENTR D-TOPO vector and later transferred to the pk7FWG2 vector [56]. Leaves from N. benthamiana plants were agroinfiltrated with p19 vector alone and p19 co-expressed with p35S-BAK1:GFP, as previously described. After 3 days, leaves were homogenized in extraction buffer [300 mM sucrose, 100 mM Tris-HCl pH 7.5, 25 mM EDTA, 25 mM NaF, 1 mM Na2MoO4, 1 mM PMSF, 1 mM DTT and protease inhibitor cocktail (Roche), pH 6.2 adjusted] and centrifuged at 1,000 g for 10 min at 4°C, and the supernatant was then centrifuged at 100,000 g for 50 min at 4°C to precipitate the microsomal pellet. The pellet was resuspended in the extraction buffer plus 0.5% Triton-X and incubated with 600 nM recombinant AtRALF1 or 600 nM RALF1(I6A) for 1 h at 4°C. The complexes were incubated with anti-GFP antibody (Santa Cruz Biotechnology) and Sepharose Beads plus protein A (Life Technologies) overnight at 4°C. […] The AtRALF1/BAK1-GFP complex bound to the beads was eluted with denaturing in 10 μl of 1X loading buffer (NuPAGE LDS buffer) at 95°C for 8 min, then analyzed by SDS-PAGE. The proteins were detected as previously described.

[1] = system: Arabidopsis seedlings, primary root; assay: Root growth inhibition assay, liquid medium, 24-well plates; format: in vivo, Arabidopsis thaliana; details: 10 μM, 2 days
Experimental: (A) and (B) Arabidopsis seedlings (2 days old) were treated with 10 μM AtRALF1 or water (H20) for 2 days. The values are the mean ± SD of at least 25 seedlings. Triple asterisks indicate P < 0.01 (Student’s t test); ns, not significant. (C) Four-day-old seedlings were transferred to media containing different concentrations of AtRALF1, and the primary root length was measured after 8 days of treatment. The data represent the mean value ± SD of 30 seedlings. […] Representative Arabidopsis seedlings after 8 days of treatment with AtRALF1 are shown below. Seedlings were arranged on plates after the treatment for imaging. Scale bars, 1 cm. (D) Two-day-old seedlings were treated with 10 μM AtRALF1 or water for 2 days, and root cell length was measured after 2 days of treatment. Cells from the root endodermis in the differentiation zone were measured. The values are the mean ± SD of approximately 150 cells. Triple asterisks indicate P < 0.01 (Student’s t test); ns, not significant.
Aliquots of 1 ml of medium containing seeds were distributed into 24-well plates. The peptides (10 μM) were added after 2 days, and the root length was measured 2 days after treatment. To maximize root growth, the seeds were germinated in vertical plates. […] The root length was measured 8 days after treatment unless stated otherwise. Control plants were grown under identical conditions in a peptide-free medium. Quantitative data were obtained as previously described. The experiments were repeated at least 3 times using independent biological replicates with similar results. The data from one representative experiment are shown. For cell length measurements, AtRALF1 peptide (10 μM) was added after 2 days of germination, and the cell length was measured after 2 days of treatment. The cell wall was stained with a 1 mg ml^-1 propidium iodide solution (Sigma) in the dark for 15 min and washed twice with water. Cells of the endodermis of the root differentiation zone were imaged and measured using confocal microscopy (Olympus FV1000). Approximately 30 plants from each genetic background and at least 5 cells per root were measured. The wavelengths for excitation and emission were 555 and 655 nm, respectively. Image processing was completed using the Olympus FluoView software.
Arabidopsis seedlings (2-days-old) were treated with 10 μM AtRALF1 or water (H20) for 2 days. The values are the mean ± SD of at least 25 seedlings. Triple asterisks indicate P < 0.01 (Student’s t test); ns, not significant. (PDF) Click here for additional data file.
Supplementary file pgen.1007053.s002.pdf: S2 Fig Loss-of-function bak1 mutants are sensitive to the inhibitory activity of AtRALF23/34 on root growth. Arabidopsis seedlings (2-day-old) were treated with 10 μM RALF1(9–49), RALF1(I6A), AtRALF1, AtRALF23 and AtRALF34 or water (H20) for 2 days. The values are the mean ± SD of at least 20 seedlings. […] (PDF) Click here for additional data file.

HA-BAK1-ECD = assay: Co-immunoprecipitation in vitro; format: binding, Arabidopsis thaliana; details: 100 nM each protein, pH 6.3, overnight 4 °C, agarose anti-HA beads
Experimental: The purified recombinant proteins AtRALF1 and HA-BAK1-ECD and the synthetic peptides RALF1(9–49) and RALF1(I6A) were combined in 200 μl of interaction buffer pH 6.3 (100 mM NaCl; 1 mM PMSF; 0.5%Triton X; 2.7 mM KCl; 8 mM NaH2PO4; 2 mM KH2PO4) overnight at 4 °C. A 100-nM concentration of each protein was used. This solution was incubated with agarose anti-HA beads (EZview Red Anti-HA Affinity Gel, Sigma) for 30 min at 4 °C to immunoprecipitate the proteins, washed 5 times with interaction buffer, eluted in 1X SDS sample buffer containing 10% β-mercaptoethanol and applied to an SDS-PAGE gel. The immunoprecipitated HA-BAK1-ECD and co-immunoprecipitated AtRALF1 were analyzed by protein blotting as described. The primary and secondary antibodies used to detect AtRALF1 were anti-AtRALF1 (1:10,000, Celula B, Immunology Laboratory, UFRGS, Brazil) and goat anti-rabbit HRP-conjugated secondary antibody (1: 10,000, BioRad), respectively.

[2] = system: cytosolic Ca^2+ in Arabidopsis seedlings; details: BL; ref [38]; cited from earlier work
BAK1 = BAK1 phosphorylation assay, anti-phosphothreonine; format: in vivo, Arabidopsis thaliana; details: pBAK1:BAK1-HA roots, 20 min; AtRALF1 1, 2, 10 μM; BL 0.1 μM
Experimental: Transgenic plants pBAK1:BAK1-6xHA were grown in vertical plates for 10–15 days. The plants were treated with 0.1 μM BL, 2 μM RALF1(9–49), 1 μM, 2 μM or 10 μM AtRALF1 for 20 min. The roots were isolated, and the microsomal fractions were obtained as described above. The microsomal fractions were incubated with anti-HA beads (EZview Red Anti-HA Affinity Gel, Sigma) for 2 h at 4 °C to immunoprecipitate the BAK1 protein. The unbound materials were removed by washing 3 times. Proteins were separated by SDS/PAGE and further analyzed by protein blotting using anti-HA (Thermo Scientific), or anti-phosphothreonine (Novus Biologicals), or anti-phosphoserine (Novus Biologicals) antibodies.

BAK1 gene = details: BL hormone treatment, Arabidopsis plants; ref [29]; cited from earlier work
Text: It has been previously shown through microarray experiments that the treatment of Arabidopsis plants with AtRALF1 causes BAK1 gene induction by approximately 1.56-fold. Our data are consistent with that previous observation and add a new gene to the list of AtRALF1-inducible genes. […] The fact that AtRALF1 peptide and BL treatment both induce BAK1 gene expression provides further evidence that BAK1 ...

[3] = system: Arabidopsis seedlings, primary root; assay: Root growth inhibition assay, vertical plates; format: in vivo, Arabidopsis thaliana; details: bak1 mutants, 0 or 1 μM BL, 8 days
[4] = system: plants overexpressing the AtRALF1 gene; details: plants overexpressing AtRALF1 treated with BL; ref [9]; cited from earlier work
Text: AtRALF1-overexpressing plants are less sensitive to exogenous brassinosteroids (BRs). […] The expansin A5 gene (AtEXPA5), which is involved in the regulation of cell ...

[5] = system: AtPRP3, AtHRGP2, CPD and DWF4 genes; details: cited from earlier work
Text: AtRALF1-overexpressing plants are less sensitive to exogenous brassinosteroids (BRs). […] AtRALF1 also induces two cytochrome P450 monooxygenase genes related to the BR biosynthetic pathway: Constitutive Photomorphism and Dwarfism (CPD) and DWARF4 (DWF4). We exposed the bak1 mutants to the same concentration of AtRALF1 and evaluated the capacity to induce the AtPRP3, AtHRGP2, CPD and DWF4 genes. None of the AtRALF1-inducible genes were ...

fer4 mutant = details: ref [10]; cited from earlier work
Text: Isothermal titration calorimetry has been used to estimate Kd values for plant ligand-receptor kinase pairs, IDA/ HAESA and AtRALF23/FERONIA are among them and our Kd values are consistent with these reported values. […] Previous studies have shown the possibility of additional sites for AtRALF1 binding. In cell suspension cultures of tomato, tobacco and alfalfa, the ^125I-azido-RALF peptide cross-linked to two p ...

[6] = biological target: B2; assay: ITC; VP ITC; 0.7 mM BAK1-ECD in the syringe (28 injections of 10 μl) into 0.03 mM peptide in the 1.4 ml cell; 15 mM HEPES pH 6.8; 25 °C; three independent experiments; details: both partners purified
[7] = biological target: B1; assay: as above; details: both partners purified

Molecule: RALF1(I6A): inactive AtRALF1 peptide which has an Ile replaced by an Ala in the conserved YISY domain (ATTKYASYQSLKRNSVPCSRRGASYYNCQNGAQANPYSRGCSKIARCRS; ends and bridges not checked; cysteine pairing not given here; UniProt Q9SRY3 72-120, looked up, variant I6A)
- co-immunoprecipitation with BAK1-GFP (BAK1-GFP): did not co-immunoprecipitate with BAK1-GFP
- activity of negative control peptides on root growth [1]: inactive
- co-immunoprecipitation with HA-BAK1-ECD (HA-BAK1-ECD): did not co-immunoprecipitate with BAK1

Molecule: CC(C)[C@H](C)[C@@H](O)[C@H](O)[C@@H](C)[C@H]1CC[C@H]2[C@@H]3COC(=O)[C@H]4C[C@H](O)[C@H](O)C[C@]4(C)[C@H]3CC[C@]12C [BL, brassinolide, reference compound]
- mobilization of Ca^2+, dependence on BAK1 [2]: independent of BAK1
- BAK1 phosphorylation in threonine residues (BAK1): increase resulting from the treatment of the seedlings with BL
- BAK1 gene induction (BAK1 gene): promotes BAK1 gene induction in Arabidopsis plants
- sensitivity of root growth to BL [3]: Reduced sensitivity
- hypocotyl elongation [4]: a minor increase in hypocotyl elongation
- number of lateral roots [4]: no change in the number of lateral roots
- root length [4]: no increase in root length
- AtRALF23 gene expression ([5]; Arabidopsis seedlings, BL, ref [4],[19]): down-regulated
- CPD and DWF4 gene expression ([5]; BL treatment, ref [9]): down-regulated by BL treatment
- AtEXPA5 expression ([5]; roots of treated seedlings, ref [16]–[18]): induced by BL

Molecule: ^125I-labeled AtRALF1: AtRALF1 radiolabeled with ^125I, earlier study [10] (ATTKYISYQSLKRNSVPCSRRGASYYNCQNGAQANPYSRGCSKIARCRS; ends and bridges not checked; also: radiolabeled with 125I; UniProt Q9SRY3 72-120, looked up)
- reduction of specific binding of 125I-labeled AtRALF1 (fer4 mutant): approximately 40%

Molecule: B1
- stoichiometry N [6]: 1.5 and 0.5 and 1.27

Molecule: B2
- Kd [7]: 4.6 µM and 4.9 µM and 5.8 µM
